Experimental data as given in US20250026718A1, “SOLID FORMS OF MESEMBRINE AND THERAPEUTIC USES THEREOF” (Sensorium Therapeutics, Inc., priority 2022, published 2025).
In brackets after ≈: the same amount, converted by molar mass. Entries after “also recorded” stand apart in the source; their conditions may differ. Read-outs that look alike come from different tables or passages of the source.

Legend:
[1] = solid state stability: storage at 25° C./60% RH and 40° C./75% RH for 1 week, XRPD and HPLC purity; type: physicochemical; settings: for Purity (area %): HPLC purity; for Form change: XRPD; for HPLC purity change after storage: 40° C./75% RH for 1 week
Description: For XRPD analysis, Empyrean X-ray powder diffractometer from Malvern Panalytical was used. Sample was spread on the middle of a zero-background Si holder.
XRPD and HPLC purity was performed for stability samples to assess the physical and chemical stability.

[2] = hygroscopicity by DVS; type: physicochemical
Description: Hygroscopicity of Freeform Form A, HCl Form A, Besylate Form B, and Gentisate Form A was evaluated by DVS.

[3] = target: sodium-dependent serotonin transporter (SERT) (Homo sapiens, UniProt P31645); settings: reported for the naturally occurring compound from Sceletium tortuosum; cited from earlier work
[4] = solubility of Freeform Form A in solvents; type: physicochemical
Description: Freeform Form A was a gum material. The material had the solubility shown below:

[5] = kinetic solubility in H2O and bio-relevant media (SGF, FaSSIF, FeSSIF) at 37° C.; type: physicochemical; settings: thermodynamic from solid; for solubility: 37 °C, read-out: observed solubility; for solubility kinetic / solubility at 1 h / solubility at 2 h / solubility at 4 h / solubility at 24 h: 37° C.; for solubility kinetic: at 1, 2, 4 and 24 hrs; for solubility at 1 h / solubility at 2 h / solubility at 4 h / solubility at 24 h: read-out: S: Solubility (mg/mL), calculated by freebase
Description: • 1. Add about 40 mg of samples and 4 mL of corresponding medium into a 5-mL glass vial. The loading concentration was ˜10 mg/mL (calculated by freebase). • 2. Roll at 37° C. (˜25 rpm). Sample at 1, 2, 4 and 24 hrs. • 3. At each time-point, sample 0.8 mL of solution or suspension into a centrifuge tube prior to centrifugation (12000 rpm, 37° C., 5 min) and filtration through 0.45 μm PTFE membrane. • 4. Test pH and concentration for the filtrate. Analyze residual solids by XRPD.

Chain of sodium-dependent serotonin transporter (SERT) (P31645 whole entry, species assumed): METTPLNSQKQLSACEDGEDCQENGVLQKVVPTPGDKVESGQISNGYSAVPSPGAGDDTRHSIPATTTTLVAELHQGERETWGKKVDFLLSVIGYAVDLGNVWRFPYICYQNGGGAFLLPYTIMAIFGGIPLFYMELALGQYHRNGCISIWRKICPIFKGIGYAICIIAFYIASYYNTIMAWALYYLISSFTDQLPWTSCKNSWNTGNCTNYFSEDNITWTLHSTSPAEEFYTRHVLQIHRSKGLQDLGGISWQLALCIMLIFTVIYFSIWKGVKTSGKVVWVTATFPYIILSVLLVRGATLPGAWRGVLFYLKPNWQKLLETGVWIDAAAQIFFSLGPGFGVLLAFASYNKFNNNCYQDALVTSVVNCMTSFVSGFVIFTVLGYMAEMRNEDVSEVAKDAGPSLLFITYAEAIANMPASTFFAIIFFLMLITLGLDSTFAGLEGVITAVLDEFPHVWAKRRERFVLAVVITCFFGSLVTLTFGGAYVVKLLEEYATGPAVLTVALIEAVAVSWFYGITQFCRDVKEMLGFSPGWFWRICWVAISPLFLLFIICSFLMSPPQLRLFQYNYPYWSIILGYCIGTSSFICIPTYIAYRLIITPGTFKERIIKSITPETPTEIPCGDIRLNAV

COc1ccc([C@@]23CCC(=O)C[C@@H]2N(C)CC3)cc1OC.O=C(O)c1cc(O)ccc1O [Gentisate Form A]
form change by XRPD after storage ([1]; 25° C./60% RH/open/1 week): no form change | Purity (area %) ([1]; 25° C./60% RH/open/1 week): 97.18 area % | Form change ([1]; 25° C./60% RH/open/1 week): No | HPLC purity change after storage [1]: slight purity decrease | form change by XRPD after storage ([1]; 40° C./75% RH/open/1 week): no form change | Purity (area %) ([1]; 40° C./75% RH/open/1 week): 97.11 area % | Form change ([1]; 40° C./75% RH/open/1 week): No | Purity (area %) ([1]; Initial): 97.22 area % | Water uptake at 25° C./80% RH (wt %) ([2]; DVS): 0.17 wt % | water uptake at 25° C./80% RH ([2]; DVS): 0.17% | Form change by XRPD after DVS test [2]: No form change and No

COc1ccc(C23CCC(=O)CC2N(C)CC3)cc1OC.Cl (stereo not shown) [HCl Form A]
form change by XRPD after storage ([1]; 25° C./60% RH/open/1 week): no form change | Purity (area %) ([1]; 25° C./60% RH/open/1 week): 97.06 area % | Form change ([1]; 25° C./60% RH/open/1 week): No | HPLC purity change after storage [1]: slight purity decrease | form change by XRPD after storage ([1]; 40° C./75% RH/open/1 week): no form change | Purity (area %) ([1]; 40° C./75% RH/open/1 week): 97.00 area % | Form change ([1]; 40° C./75% RH/open/1 week): No | Purity (area %) ([1]; Initial): 97.15 area % | Water uptake at 25° C./80% RH (wt %) ([2]; DVS): 0.72 wt % | water uptake at 25° C./80% RH ([2]; DVS): 0.72% | water uptake at 95% RH ([2]; DVS, 95% RH): 18.46% | Form change by XRPD after DVS test [2]: No form change | Form change by XRPD after DVS test ([2]; listed as HCl salt Form A): No form change and No

COc1ccc([C@@]23CCC(=O)C[C@@H]2N(C)CC3)cc1OC [Compound 1, 3a-(3,4-dimethoxyphenyl)-octahydro-1-methyl-6H-indol-6-one]
serotonin (5-HT) uptake inhibitory activity [3]: serotonin (5-HT) uptake inhibitory activity

COc1ccc([C@@]23CCC(=O)C[C@@H]2N(C)CC3)cc1OC.O=S(=O)(O)c1ccccc1 [Besylate Form B]
form change by XRPD after storage ([1]; 25° C./60% RH/open/1 week): no form change | Purity (area %) ([1]; 25° C./60% RH/open/1 week): 97.16 area % | Form change ([1]; 25° C./60% RH/open/1 week): No | HPLC purity change after storage [1]: slight purity decrease | form change by XRPD after storage ([1]; 40° C./75% RH/open/1 week): no form change | Purity (area %) ([1]; 40° C./75% RH/open/1 week): 97.12 area % | Form change ([1]; 40° C./75% RH/open/1 week): No | Purity (area %) ([1]; Initial): 97.21 area % | Water uptake at 25° C./80% RH (wt %) ([2]; DVS): 0.32 wt % | water uptake at 25° C./80% RH ([2]; DVS): 0.32% | Form change by XRPD after DVS test [2]: No form change and No

COc1ccc([C@@]23CCC(=O)C[C@@H]2N(C)CC3)cc1OC [Freeform Form A]
solubility ([4]; 1,4-Dioxane, organic solvent or mixture): > 40000 µg/mL | solubility ([4]; 2-MeTHF, organic solvent or mixture): > 40000 µg/mL | solubility ([4]; ACN, organic solvent or mixture): > 44000 µg/mL | solubility ([4]; Acetone, organic solvent or mixture): > 40000 µg/mL | solubility ([4]; CPME, organic solvent or mixture): > 40000 µg/mL | solubility ([4]; DCM, organic solvent or mixture): > 42000 µg/mL | solubility ([4]; EtOAc, organic solvent or mixture): 19000 to 38000 µg/mL (≈ 65.7 to 131 mM) | solubility ([4]; EtOH, organic solvent or mixture): > 42000 µg/mL | solubility ([4]; H2O, water): > 42000 µg/mL | solubility ([4]; IPA, organic solvent or mixture): > 38000 µg/mL | solubility ([4]; IPAc, organic solvent or mixture): > 36000 µg/mL | solubility ([4]; MIBK, organic solvent or mixture): > 38000 µg/mL | solubility ([4]; MTBE, organic solvent or mixture): > 40000 µg/mL | solubility ([4]; MeOH, organic solvent or mixture): > 36000 µg/mL | solubility ([4]; THF, organic solvent or mixture): > 44000 µg/mL | form change by XRPD after storage ([1]; 25° C./60% RH/open/1 week): amorphous | Purity (area %) ([1]; 25° C./60% RH/open/1 week): 98.14 area % | Form change ([1]; 25° C./60% RH/open/1 week): Amorphous | HPLC purity change after storage [1]: slight purity decrease | form change by XRPD after storage ([1]; 40° C./75% RH/open/1 week): amorphous | Purity (area %) ([1]; 40° C./75% RH/open/1 week): 98.01 area % | Form change ([1]; 40° C./75% RH/open/1 week): Amorphous | Purity (area %) ([1]; Initial): 98.15 area % | Form change by XRPD after DVS test [2]: amorphous; also recorded: Amorphous* | behaviour during DVS test ([2]; during DVS test): deliquesced | solubility ([5]; simulated gastric fluid, in SGF): > 8300 µg/mL | solubility ([5]; in FaSSIF): > 8300 µg/mL | solubility ([5]; in FeSSIF): > 8300 µg/mL | solubility ([5]; water, in H2O): > 8300 µg/mL | solubility kinetic ([5]; simulated gastric fluid, SGF): > 8300 µg/mL | solubility at 1 h ([5]; simulated gastric fluid, SGF): > 8.6 mg/mL | solubility at 2 h ([5]; simulated gastric fluid, SGF): > 9.2 mg/mL | solubility at 4 h ([5]; simulated gastric fluid, SGF): > 8.4 mg/mL | solubility at 24 h ([5]; simulated gastric fluid, SGF): > 8.7 mg/mL | solubility kinetic ([5]; FaSSIF): > 8300 µg/mL | solubility at 1 h ([5]; FaSSIF): > 8.7 mg/mL | solubility at 2 h ([5]; FaSSIF): > 8.7 mg/mL | solubility at 4 h ([5]; FaSSIF): > 8.3 mg/mL | solubility at 24 h ([5]; FaSSIF): > 8.5 mg/mL | solubility kinetic ([5]; FeSSIF): > 8300 µg/mL | solubility at 1 h ([5]; FeSSIF): > 8.7 mg/mL | solubility at 2 h ([5]; FeSSIF): > 9.8 mg/mL | solubility at 4 h ([5]; FeSSIF): > 9.1 mg/mL | solubility at 24 h ([5]; FeSSIF): > 9.9 mg/mL | solubility kinetic ([5]; water, H2O): > 8300 µg/mL | solubility at 1 h ([5]; water, H2O): > 9.1 mg/mL | solubility at 2 h ([5]; water, H2O): > 9.3 mg/mL | solubility at 4 h ([5]; water, H2O): > 9.4 mg/mL | solubility at 24 h ([5]; water, H2O): > 9.3 mg/mL
